Laboratory results as given in patent publication US20230038201A1, “TRANSFER FILM, PHOTOSENSITIVE MATERIAL, PATTERN FORMING METHOD, MANUFACTURING METHOD OF CIRCUIT BOARD, AND MANUFACTURING METHOD OF TOUCH PANEL” (FUJIFILM Corporation, priority 2020, published 2023).
Like-named read-outs stand apart in the source and are kept apart here.

How the values were obtained:
[1] = Measurement of pKa of compound β in ground state (acid titration, 0.1 N HCl, methanol/water); settings: for pKa: methanol/water mixture
[2] = Measurement of ε365 and ε365/ε313 of compound β (molar absorption coefficients in acetonitrile); format: physicochemical; set-up: key to ε365 of Compound β: molar absorption coefficient at 365 nm in (cm·mol/L)^−1; settings: for ε365/ε313: compound β
From the text: (Measurement and Evaluation of ε365 and ε365/ε313)
A molar absorption coefficient ((cm·mol/L)^−1, “ε365”) of the compound β at 365 nm and a molar absorption coefficient ((cm·mol/L)^−1, “ε313”) of the compound β at 313 nm were obtained, and a value (ε365/ε313) obtained by divided ε365 by ε313 was obtained.
The ε365 and ε313 of the compound β are molar absorption coefficients measured by dissolving the compound β in acetonitrile. In a case where the compound β was insoluble in acetonitrile, a solvent for dissolving the compound β may be appropriately changed.

[3] = physchem
[4] = pKa in ground state, compound β, pKa of the conjugate acid for nitrogen-containing aromatic compounds
[5] = molar absorption coefficient at 365 nm
[6] = molar absorption coefficient at 365 nm in acetonitrile
[7] = molar absorption coefficient at 365 nm, compound β alone
[8] = molar absorption coefficient at 365 nm, in acetonitrile
[9] = compound β, pKa of the conjugate acid for nitrogen-containing aromatic compounds
[10] = pKa of Compound β in ground state
[11] = pKa of Compound β in ground state, compound β alone
[12] = pKa of Compound β in ground state, compound β, ground state
[13] = pKa of Compound β in ground state, ground state

SMILES | pKa [1, 4] | ε365 of Compound β [2] | ε365 of Compound β ([2]; compound β alone) | ε365 of Compound β [2, 5] | ε365 of Compound β [2, 6] | ε365 of Compound β [2, 7] | ε365 of Compound β [2, 8] | pKa [1, 10] | pKa [1, 11] | pKa [1, 12] | pKa [1, 13] | further results
c1cnc2c(c1)CCCC2 [5,6,7,8-Tetrahydroquinoline] | 5.9 |  |  |  |  |  |  |  |  |  |  | ε365/ε313 ([2]; in acetonitrile): <1
Clc1ccccn1 [Example B14, 2-chloropyridine] |  |  |  |  |  |  |  |  |  |  |  | pKa [1]: 0.7
O=C(c1ccccc1)c1ccncc1 [4-Benzoylpyridine] | 2.9 |  |  |  |  |  |  |  |  |  |  | ε365/ε313 ([2]; in acetonitrile): <1
c1ccncc1 [Example B11, pyridine] |  | <10 | <10 | <10 | <10 (cm·mol/L)^−1 | <10 | <10 (cm·mol/L)^−1 |  |  |  |  | 
Cc1c2ccccc2nc2ccccc12 [Example 9-Methylacridine, 9-Methylacridine] |  | 6300 | 6300 | 6300 | 6300 (cm·mol/L)^−1 | 6300 | 6300 (cm·mol/L)^−1 | 5.4 | 5.4 | 5.4 | 5.4 | 
c1ccc2c(c1)cnc1ccccc12 [Phenanthridine] | 3.8 |  |  |  |  |  |  |  |  |  |  | ε365/ε313 ([2]; in acetonitrile): <1
Clc1ccccn1 [Example 2-Chloropyridine, 2-Chloropyridine] |  | <10 | <10 | <10 | <10 (cm·mol/L)^−1 | <10 | <10 (cm·mol/L)^−1 |  |  |  |  | pKa of Compound β in ground state [1]: 0.70; pKa of Compound β in ground state ([1]; compound β alone): 0.70; pKa of Compound β in ground state ([1]; compound β, ground state): 0.70; pKa of Compound β in ground state ([1]; ground state): 0.70
CCCCc1nccc2ccccc12 [Example 1-n-Butylisoquinoline, 1-n-Butylisoquinoline] |  | <10 | <10 | <10 | <10 (cm·mol/L)^−1 | <10 | <10 (cm·mol/L)^−1 | 5.27 | 5.27 | 5.27 | 5.27 | 
c1ccc(-c2c3ccccc3nc3ccccc23)cc1 [Example 9-Phenylacridine, 9-Phenylacridine] |  |  |  |  |  | >1000 |  | 4.04 | 4.04 | 4.04 | 4.04 | 
CC(=O)c1ccncc1 [4-Acetylpyridine] | 3.1 |  |  |  |  |  |  |  |  |  |  | ε365/ε313 ([2]; in acetonitrile): <1
COc1cc(C)nc2ccccc12 [Example 2-Methyl-4-methoxyquinoline, 2-Methyl-4-methoxyquinoline] |  | <10 | <10 | <10 | <10 (cm·mol/L)^−1 | <10 | <10 (cm·mol/L)^−1 | 6.51 | 6.51 | 6.51 | 6.51 | 
Nc1ccncc1 [Example 4-Aminopyridine, 4-Aminopyridine] |  | <100 | <100 | <100 | <100 (cm·mol/L)^−1 | <100 | <100 (cm·mol/L)^−1 | 9.2 | 9.2 | 9.2 | 9.2 | 
CCCCc1ncc(C)c2ccccc12 [Example 1-n-Butyl-4-methylisoquinoline, 1-n-Butyl-4-methylisoquinoline] |  | <10 | <10 | <10 | <10 (cm·mol/L)^−1 | <10 | <10 (cm·mol/L)^−1 | 5.9 | 5.9 | 5.9 | 5.9 | 
Nc1ccncc1 [Example B13, 4-aminopyridine] |  |  |  |  |  |  |  |  |  |  |  | pKa [3]: 9.2
Cc1cc(C)c2c(C)cc(C)nc2c1 [2,4,5,7-Tetramethylquinoline] |  | <10 | <10 | <10 | <10 (cm·mol/L)^−1 | <10 | <10 (cm·mol/L)^−1 | 6.23 | 6.23 | 6.23 | 6.23 | 

More lines, main results first:

pKa [1, 4] | ε365 of Compound β [2] | ε365 of Compound β ([2]; compound β alone) | ε365 of Compound β [2, 5] | ε365 of Compound β [2, 6] | ε365 of Compound β [2, 7] | ε365 of Compound β [2, 8] | pKa [1, 10] | pKa [1, 11] | pKa [1, 12] | pKa [1, 13] | SMILES | further results
5.9 |  |  |  |  |  |  |  |  |  |  | CCCCc1ncc(C)c2ccccc12 [Example B5, 1-n-butyl-4-methylisoquinoline] | 
6.23 |  |  |  |  |  |  |  |  |  |  | Cc1cc(C)c2c(C)cc(C)nc2c1 [Example B7, 2,4,5,7-tetramethylquinoline] | 
4.2 | <10 | <10 | <10 | <10 (cm·mol/L)^−1 | <10 | <10 (cm·mol/L)^−1 | 4.15 | 4.15 | 4.15 | 4.15 | c1ccc2ncccc2c1 [Example B2, quinoline] | ε365/ε313 ([2]; in acetonitrile): <1; pKa in ground state [1, 9]: 4.15
6.51 |  |  |  |  |  |  |  |  |  |  | COc1cc(C)nc2ccccc12 [Example B8, 2-methyl-4-methoxyquinoline] | 
5.27 |  |  |  |  |  |  |  |  |  |  | CCCCc1nccc2ccccc12 [Example B4, 1-n-butylisoquinoline] | 
4.7 | 4900 | 4900 | 4900 | 4900 (cm·mol/L)^−1 | 4900 | 4900 (cm·mol/L)^−1 | 4.67 | 4.67 | 4.67 | 4.67 | c1ccc2nc3ccccc3cc2c1 [Example B3, acridine] | ε365/ε313 ([2]; in acetonitrile): >3; pKa in ground state [1, 9]: 4.67
5.4 |  |  |  |  |  |  |  |  |  |  | Cc1c2ccccc2nc2ccccc12 [Example B9, 9-methylacridine] | 
 | <10 | <10 | <10 | <10 (cm·mol/L)^−1 | <10 | <10 (cm·mol/L)^−1 |  |  |  |  | Cc1nccc2ccccc12 [Example B6, 1-Me-isoquinoline] | pKa of Compound β in ground state [1]: 5.31; pKa of Compound β in ground state ([1]; compound β alone): 5.31; pKa of Compound β in ground state ([1]; compound β, ground state): 5.31; pKa in ground state [1, 9]: 5.31; pKa of Compound β in ground state ([1]; ground state): 5.31
4.7 | <10 | <10 | <10 | <10 (cm·mol/L)^−1 | <10 | <10 (cm·mol/L)^−1 | 4.69 | 4.69 | 4.69 | 4.69 | c1ccc2cnccc2c1 [Example B1, isoquinoline] | ε365/ε313 ([2]; in acetonitrile): <1; pKa in ground state [1, 9]: 4.69
4.04 |  |  |  |  |  |  |  |  |  |  | c1ccc(-c2c3ccccc3nc3ccccc23)cc1 [Example B10, 9-phenylacridine] | 
5.67 | <10 |  | <10 | <10 (cm·mol/L)^−1 | <10 | <10 (cm·mol/L)^−1 | 5.67 | 5.67 | 5.67 | 5.67 | Cc1cc(C)c2ccccc2n1 [Example B12, 2,4-dimethylquinoline] | 
